This note sets out measurements from patent US20230130766A1 (SALK INSTITUTE FOR BIOLOGICAL STUDIES, priority 2020, published 2023).

Molecules are shown by their SMILES. Where only a bound is given, the exact number is not on record here.

For one assay, the system named is MIA PaCa-2 cells. The assay is described as follows: MIA PaCa-2 xenografts, ULK inhibitor alone versus gemcitabine. It counts as in vivo, nude mice. To be noted: day 42, Compound 14 20 mg/kg twice daily, gemcitabine dose not given. As for the experimental part:
MIA PaCa-2 cells were injected bilaterally into the flanks of nude mice to create tumor xenografts in order to assess the efficacy of Compound 14 in treating pancreatic cancer tumors compared to gemcitabine, a current standard of care therapy for pancreatic cancer. After 3 days of letting tumor cells proliferate (at which point tumors were ˜100 mm^3 in volume), administration of gemcitabine or Compound 14 was initiated. One cohort received 20 mg/kg twice daily doses of Compound 14, one cohort received gemcitabine, and the remaining cohort was treated with vehicle. Treatment and monitoring were continued until day 42 post inoculation of tumor cells (30 days of treatment).

A further assay concerns the target T1, ULK1 (Homo sapiens, UniProt O75385).
T1 sequence (O75385 1-1050): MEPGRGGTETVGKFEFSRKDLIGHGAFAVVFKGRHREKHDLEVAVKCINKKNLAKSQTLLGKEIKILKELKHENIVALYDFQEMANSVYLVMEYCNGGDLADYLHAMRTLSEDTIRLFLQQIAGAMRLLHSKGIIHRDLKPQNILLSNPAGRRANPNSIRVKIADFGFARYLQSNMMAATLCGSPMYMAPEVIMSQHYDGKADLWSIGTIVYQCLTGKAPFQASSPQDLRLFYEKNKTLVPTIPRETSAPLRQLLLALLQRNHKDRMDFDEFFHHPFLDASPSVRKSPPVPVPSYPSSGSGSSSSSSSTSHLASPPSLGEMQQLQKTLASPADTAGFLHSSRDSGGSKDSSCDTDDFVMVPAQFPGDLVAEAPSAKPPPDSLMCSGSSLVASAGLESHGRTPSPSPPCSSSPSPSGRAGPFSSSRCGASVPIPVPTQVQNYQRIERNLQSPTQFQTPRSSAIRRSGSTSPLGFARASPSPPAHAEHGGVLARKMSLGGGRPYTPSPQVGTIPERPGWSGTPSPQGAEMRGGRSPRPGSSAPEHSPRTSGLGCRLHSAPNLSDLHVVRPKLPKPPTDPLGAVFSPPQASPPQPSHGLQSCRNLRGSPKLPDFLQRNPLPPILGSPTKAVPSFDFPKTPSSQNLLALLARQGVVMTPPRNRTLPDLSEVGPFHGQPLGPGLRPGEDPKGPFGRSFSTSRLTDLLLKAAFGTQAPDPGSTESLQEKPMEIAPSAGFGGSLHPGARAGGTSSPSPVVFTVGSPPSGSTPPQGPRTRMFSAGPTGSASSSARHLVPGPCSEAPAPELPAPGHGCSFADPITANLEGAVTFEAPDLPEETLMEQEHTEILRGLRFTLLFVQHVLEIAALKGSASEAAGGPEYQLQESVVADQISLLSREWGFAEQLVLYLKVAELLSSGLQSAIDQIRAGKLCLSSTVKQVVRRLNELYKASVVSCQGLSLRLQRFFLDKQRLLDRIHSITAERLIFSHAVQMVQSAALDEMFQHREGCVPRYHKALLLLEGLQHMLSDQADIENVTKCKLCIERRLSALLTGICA
The assay is described as follows: ULK1 inhibition assay. To be noted: * = tested as a mixture of regioisomers. It counts as biochemical.

The subject of another assay is NCI-H358 cells. The assay is described as follows: H358 xenografts treated with ULK inhibitor alone. The assay is classed as in vivo, nude mice. To be noted: 30 mg/kg twice daily. As for the experimental part: NCI-H358 cells (5M cells) were injected bilaterally into the flanks of twenty nude mice to create tumor xenografts in order to assess the efficacy of Compound 14 in treating non-small cell lung cancer tumors. After 32 days of letting tumor cells proliferate (at which point tumors had reach ˜200 mm^3 in volume), one cohort of ten mice was administered 30 mg/kg twice daily doses of Compound 14, and the remaining mice administered vehicle alone. Treatment and monitoring was continued until day 72 post inoculation of tumor cells.

Broadly, the IC50 is the concentration that gives 50% inhibition. Turning to `CNC(=O)c1ccccc1Nc1nc(Nc2cc(OC)c(OC)c(OC)c2)ncc1Br` [Compound 14], the final tumor volume in the assay with MIA PaCa-2 cells is approximately 800 mm^3. Besides, on ULK1, the IC50 is less than 200 nM. Also, the “% growth of tumor cells relative to the start of treatment” value in the assay with NCI-H358 cells is reported as “clear reduction in average tumor size”. Moreover, the average tumor volume entry in the assay with NCI-H358 cells (day 32 to day 72 post inoculation) is “no growth during the monitoring period, and even a decrease in tumor size”. Moreover, the “average tumor mass at the end of the study” value in the assay with NCI-H358 cells (day 35 post treatment) was “substantially smaller overall tumor burden compared to control”.
